Reference: PubChem BioAssay AID1963958 (Molecular Pharmacology Branch, DTP, NCI, 2024)

Tested on: MDA-MB-231 multicell spheroids, viability
Assay: Anticancer human tumor MDA-MB-231 cell line growth inhibition [PI3K];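 also: spheroids exposed to agents for seven days before reading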;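 as to viability, T/C: percent of vehicle control luminescence with DMSO treated spheroids as 100%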
Settings: for IC50: curve of first compound; for viability, T/C: stronger effect = lower value
Text: Combinatorial screen of targeted agents with the PI3K inhibitors inavolisib, alpelisib, duvelisib, and copanlisib in multi-cell type tumor spheroids
A high-throughput screen of multi-cell type tumor spheroids was designed to identify active combinations of targeted small molecules and PI3K pathway inhibitors. Complex spheroids include a stromal component modeled by human endothelial cells (HUVEC) and fibroblasts modeled by human mesenchymal stem cells (MSCs). The concentration ranges selected for each drug and investigational agent were based upon clinically achievable concentrations if the clinical Cmax of the agent was known.
Compounds. The drugs and investigational agents: inavolisib (NSC800729), alpelisib (NSC765974), duvelisib (NSC772469), copanlisib (NSC816437), ipatasertib (NSC767898), afuresertib (NSC778305), talazoparib (NSC767125), sapanisertib (NSC764658), selumetinib (NSC741078), tovorafenib (DAY101, NSC766906), vemurafenib (NSC761431), ravoxertinib (NSC781343), sotorasib (NSC818433), MRTX1133 (NSC 836407), abemaciclib (NSC 768073), palbociclib (NSC758247), venetoclax (NSC 766270), SY5609 (NSC837396), enzalutamide (NSC755605), and darolutamide (NSC825331), were obtained from the National Cancer Institute (NCI) Developmental Therapeutics Program Chemical Repository. The FDA-approved anticancer drug set is available from the NCI Developmental Therapeutics Program. […] The stock solutions were prepared in dimethyl sulfoxide (DMSO, Sigma-Aldrich, St. Louis, MO, cat. D2650) at 800-fold the tested concentration and stored at -70 degrees C prior to their use. All drugs and investigational agents were tested over a range starting from a high concentration at or near the clinical Cmax and decreasing in half-log increments. If the clinical Cmax for an agent had not been determined, the highest concentration tested was 10 microM.
Cell Culture. All cells were maintained in an incubator at 37 degrees C and 5% CO2 with 95% humidity. The PDC lines were cultured according to standard operating procedures established by the NCI PDMR (https://pdmr.cancer.gov/sops/default.htm). All PDCs were thawed and cultured in Matrigel-coated flasks prepared with a working solution of 1X Ham's F-12 nutrient mix, without supplementation (Invitrogen, Waltham, MA, cat. 11765054), 100 U/mL penicillin-streptomycin (Invitrogen, cat. 15140122), and 2.5% Matrigel (Corning Inc., Corning, NY, cat. 354248) for the first three passages. The 354836-022-R-J1-PDC, 475296-252-R-J1-PDC, and 997726-040-R-J2-PDC lines were cultured in 6A media, which includes advanced DMEM/F-12 (Thermo Fisher Scientific, cat. 12634028), 10 mM HEPES (Thermo Fisher Scientific, cat. 15630080), 1X GlutaMAX supplement (Thermo Fisher Scientific, cat. 35050061), 0.1 mg/mL primocin (InvivoGen, San Diego, CA, cat. ant-pm-2), 10% defined fetal bovine serum, heat inactivated (HyClone Laboratories Inc., Logan, UT, cat. SH30070.03HI), 50% L-WRN conditioned media (ATCC, cat. CRL-3276), 1.25 mM N-Acetyl-L-cysteine (Sigma-Aldrich, cat. A9165), 10 mM nicotinamide (Sigma-Aldrich, cat. N0636), 1X B-27 supplement (Thermo Fisher Scientific, cat. 17504044), 1X N-2 supplement (Thermo Fisher Scientific, cat. 17502048), and 10 microM Y-27632 dihydrochloride (Tocris Bioscience, Bristol, United Kingdom, cat. 1254). The 624824-186-R-J2-PDC line was cultured in 6C/Colon 1B media, which includes all 6A media components plus 50 ng/mL human EGF recombinant protein (Thermo Fisher Scientific, cat. PHG0311). […]

[1] = second compound 0.00316 µM, first compound 0.0316 µM
[2] = second compound 0.00316 µM, first compound 0.1 µM
[3] = second compound 0.01 µM, first compound 0.0316 µM
[4] = second compound 0.01 µM, first compound 0.1 µM
[5] = second compound 0.0316 µM, first compound 0.0316 µM
[6] = second compound 0.0316 µM, first compound 0.1 µM
[7] = second compound 0.1 µM, first compound 0.0316 µM
[8] = second compound 0.1 µM, first compound 0.1 µM
[9] = second compound 0.316 µM, first compound 0.0316 µM
[10] = second compound 0.316 µM, first compound 0.1 µM
[11] = second compound 1 µM, first compound 0.0316 µM
[12] = second compound 1 µM, first compound 0.1 µM

Question: For `CC(C)n1nc(-c2ccc3oc(N)nc3c2)c2c(N)ncnc21` + CC(Nc1ccc2c(c1)OCCn1cc(N3C(=O)OCC3C(F)F)nc1-2)C(N)=O, which IC50 (second compound 0.00316 µM) is on record?
Answer: The IC50 was 34.9 nM.

Question: And the IC50 (second compound 0.01 µM)?
Answer: The IC50 was 27.5 nM.

Question: And the IC50 (second compound 0.0316 µM)?
Answer: The IC50 was 12.8 nM.

Question: What about the IC50 (second compound 0.1 µM) of the same molecule?
Answer: The IC50 was 5.12 nM.

Question: What about the IC50 (second compound 0.316 µM) of the same molecule?
Answer: Its IC50 is 3.46 nM.

Question: And the IC50 (second compound 1 µM)?
Answer: Its IC50 is 2.13 nM.

Question: And the viability, T/C (second compound 0.00316 µM, first compound 0.000316 µM)?
Answer: The viability, T/C was 101%.

Question: What about the viability, T/C (second compound 0.00316 µM, first compound 0.001 µM) of the same molecule?
Answer: The viability, T/C was 92.6%.

Question: And the viability, T/C (second compound 0.00316 µM, first compound 0.00316 µM)?
Answer: Its viability, T/C is 94.5%.

Question: What about the viability, T/C (second compound 0.00316 µM, first compound 0.01 µM) of the same molecule?
Answer: The viability, T/C was 77.4%.

Question: And the viability, T/C [1]?
Answer: The viability, T/C was 51.8%.

Question: What about the viability, T/C [2] of the same molecule?
Answer: Its viability, T/C is 31.5%.

Question: What about the viability, T/C (second compound 0.01 µM, first compound 0.000316 µM) of the same molecule?
Answer: The viability, T/C was 89.1%.

Question: What about the viability, T/C (second compound 0.01 µM, first compound 0.001 µM) of the same molecule?
Answer: Its viability, T/C is 93.7%.

Question: And the viability, T/C (second compound 0.01 µM, first compound 0.00316 µM)?
Answer: Its viability, T/C is 89%.

Question: And the viability, T/C (second compound 0.01 µM, first compound 0.01 µM)?
Answer: Its viability, T/C is 66%.

Question: And the viability, T/C [3]?
Answer: Its viability, T/C is 50%.

Question: And the viability, T/C [4]?
Answer: Its viability, T/C is 30.5%.

Question: And the viability, T/C (second compound 0.0316 µM, first compound 0.000316 µM)?
Answer: Its viability, T/C is 81%.

Question: And the viability, T/C (second compound 0.0316 µM, first compound 0.001 µM)?
Answer: Its viability, T/C is 74.6%.

Question: And the viability, T/C (second compound 0.0316 µM, first compound 0.00316 µM)?
Answer: The viability, T/C was 65.4%.

Question: And the viability, T/C (second compound 0.0316 µM, first compound 0.01 µM)?
Answer: The viability, T/C was 54.2%.

Question: And the viability, T/C [5]?
Answer: The viability, T/C was 37.7%.

Question: And the viability, T/C [6]?
Answer: The viability, T/C was 25.5%.

Question: What about the viability, T/C (second compound 0.1 µM, first compound 0.000316 µM) of the same molecule?
Answer: The viability, T/C was 68.6%.

Question: And the viability, T/C (second compound 0.1 µM, first compound 0.001 µM)?
Answer: The viability, T/C was 63%.

Question: What about the viability, T/C (second compound 0.1 µM, first compound 0.00316 µM) of the same molecule?
Answer: Its viability, T/C is 55.2%.

Question: What about the viability, T/C (second compound 0.1 µM, first compound 0.01 µM) of the same molecule?
Answer: The viability, T/C was 42.7%.

Question: And the viability, T/C [7]?
Answer: Its viability, T/C is 33.2%.

Question: And the viability, T/C [8]?
Answer: Its viability, T/C is 21.3%.

Question: What about the viability, T/C (second compound 0.316 µM, first compound 0.000316 µM) of the same molecule?
Answer: The viability, T/C was 65.3%.

Question: And the viability, T/C (second compound 0.316 µM, first compound 0.001 µM)?
Answer: The viability, T/C was 60.2%.

Question: What about the viability, T/C (second compound 0.316 µM, first compound 0.00316 µM) of the same molecule?
Answer: The viability, T/C was 49.5%.

Question: And the viability, T/C (second compound 0.316 µM, first compound 0.01 µM)?
Answer: The viability, T/C was 41.7%.

Question: What about the viability, T/C [9] of the same molecule?
Answer: The viability, T/C was 28.5%.

Question: What about the viability, T/C [10] of the same molecule?
Answer: The viability, T/C was 19.9%.

Question: And the viability, T/C (second compound 1 µM, first compound 0.000316 µM)?
Answer: The viability, T/C was 58.8%.

Question: And the viability, T/C (second compound 1 µM, first compound 0.001 µM)?
Answer: The viability, T/C was 54.7%.

Question: What about the viability, T/C (second compound 1 µM, first compound 0.00316 µM) of the same molecule?
Answer: Its viability, T/C is 48.3%.

Question: And the viability, T/C (second compound 1 µM, first compound 0.01 µM)?
Answer: The viability, T/C was 36.6%.

Question: What about the viability, T/C [11] of the same molecule?
Answer: Its viability, T/C is 27.9%.

Question: And the viability, T/C [12]?
Answer: Its viability, T/C is 17.3%.

Question: What does the source list for `CCCS(=O)(=O)Nc1ccc(F)c(C(=O)c2c[nH]c3ncc(-c4ccc(Cl)cc4)cc23)c1F` + CC(Nc1ccc2c(c1)OCCn1cc(N3C(=O)OCC3C(F)F)nc1-2)C(N)=O?
Answer: IC50 (second compound 0.00316 µM): 4510 nM; IC50 (second compound 0.01 µM): 3620 nM; IC50 (second compound 0.0316 µM): 2440 nM; IC50 (second compound 0.1 µM): 1870 nM; IC50 (second compound 0.316 µM): 1240 nM; IC50 (second compound 1 µM): 1090 nM; viability, T/C [1]: 98.5%; viability, T/C [2]: 94.9%; viability, T/C (second compound 0.00316 µM, first compound 0.316 µM): 100%; viability, T/C (second compound 0.00316 µM, first compound 1 µM): 86.9%; viability, T/C (second compound 0.00316 µM, first compound 3.16 µM): 59.2%; viability, T/C (second compound 0.00316 µM, first compound 10 µM): 29.9%; viability, T/C [3]: 98.3%; viability, T/C [4]: 102%; viability, T/C (second compound 0.01 µM, first compound 0.316 µM): 93.3%; viability, T/C (second compound 0.01 µM, first compound 1 µM): 80.3%; viability, T/C (second compound 0.01 µM, first compound 3.16 µM): 52.8%; viability, T/C (second compound 0.01 µM, first compound 10 µM): 29.5%; viability, T/C [5]: 80.5%; viability, T/C [6]: 81.6%; viability, T/C (second compound 0.0316 µM, first compound 0.316 µM): 79.9%; viability, T/C (second compound 0.0316 µM, first compound 1 µM): 66.3%; viability, T/C (second compound 0.0316 µM, first compound 3.16 µM): 45.5%; viability, T/C (second compound 0.0316 µM, first compound 10 µM): 26.6%; viability, T/C [7]: 80.8%; viability, T/C [8]: 71.4%; viability, T/C (second compound 0.1 µM, first compound 0.316 µM): 68.6%; viability, T/C (second compound 0.1 µM, first compound 1 µM): 61.4%; viability, T/C (second compound 0.1 µM, first compound 3.16 µM): 41%; viability, T/C (second compound 0.1 µM, first compound 10 µM): 23.9%; viability, T/C [9]: 72%; viability, T/C [10]: 68.4%; viability, T/C (second compound 0.316 µM, first compound 0.316 µM): 61.7%; viability, T/C (second compound 0.316 µM, first compound 1 µM): 54.7%; viability, T/C (second compound 0.316 µM, first compound 3.16 µM): 36.7%; viability, T/C (second compound 0.316 µM, first compound 10 µM): 21.7%; viability, T/C [11]: 65.4%; viability, T/C [12]: 63.4%; viability, T/C (second compound 1 µM, first compound 0.316 µM): 59.8%; viability, T/C (second compound 1 µM, first compound 1 µM): 51%; viability, T/C (second compound 1 µM, first compound 3.16 µM): 36.9%; viability, T/C (second compound 1 µM, first compound 10 µM): 21.4%
